Converted amounts (≈) assume the structure as drawn.
Columns and labels:
Format in all cases: functional
Tetranychus urticae [1] = assay: Acaricidal activity against adult Tetranychus urticae (two-spotted spider mite) greenhouse population TU7 in bean leaves assessed as mortality applied at 1 bar pressure measured after 24 hr; conditions: TU7, 24 h
Tetranychus urticae [2] = assay: Resistance ratio, ratio of LC50 for adult Tetranychus urticae (two-spotted spider mite) greenhouse population TU7 to LC50 for adult Tetranychus urticae laboratory strain SAMB measured after 24 hr
Tetranychus urticae [3] = assay: Resistance ratio, ratio of LC50 for adult Tetranychus urticae (two-spotted spider mite) greenhouse population TU11 to LC50 for adult Tetranychus urticae laboratory strain SAMB measured after 24 hr
Tetranychus urticae [4] = assay: Acaricidal activity against adult Tetranychus urticae (two-spotted spider mite) greenhouse population TU3 in bean leaves assessed as mortality applied at 1 bar pressure measured after 24 hr; conditions: TU3, 24 h
Tetranychus urticae [5] = assay: Acaricidal activity against adult Tetranychus urticae (two-spotted spider mite) field population TU12 in bean leaves assessed as mortality applied at 1 bar pressure measured after 24 hr; conditions: TU12, 24 h
Tetranychus urticae [6] = assay: Resistance ratio, ratio of LC50 for adult Tetranychus urticae (two-spotted spider mite) laboratory strain GSS to LC50 for adult Tetranychus urticae laboratory strain SAMB measured after 24 hr
Tetranychus urticae [7] = assay: Resistance ratio, ratio of LC50 for adult Tetranychus urticae (two-spotted spider mite) field population TU12 to LC50 for adult Tetranychus urticae laboratory strain SAMB measured after 24 hr
Tetranychus urticae [8] = assay: Acaricidal activity against adult Tetranychus urticae (two-spotted spider mite) field population TU2 in bean leaves assessed as mortality applied at 1 bar pressure measured after 24 hr; conditions: TU2, 24 h
Tetranychus urticae [9] = assay: Resistance ratio, ratio of LC50 for adult Tetranychus urticae (two-spotted spider mite) field population TU6 to LC50 for adult Tetranychus urticae laboratory strain SAMB measured after 24 hr
Tetranychus urticae [10] = assay: Acaricidal activity against adult Tetranychus urticae (two-spotted spider mite) greenhouse population TU5 in bean leaves assessed as mortality applied at 1 bar pressure measured after 24 hr; conditions: TU5, 24 h
Tetranychus urticae [11] = assay: Acaricidal activity against adult Tetranychus urticae (two-spotted spider mite) greenhouse population TU9 in bean leaves assessed as mortality applied at 1 bar pressure measured after 24 hr; conditions: TU9, 24 h
Tetranychus urticae [12] = assay: Acaricidal activity against adult Tetranychus urticae (two-spotted spider mite) laboratory strain GSS in bean leaves assessed as mortality applied at 1 bar pressure measured after 24 hr
Tetranychus urticae [13] = assay: Resistance ratio, ratio of LC50 for adult Tetranychus urticae (two-spotted spider mite) field population TU2 to LC50 for adult Tetranychus urticae laboratory strain SAMB measured after 24 hr
Tetranychus urticae [14] = assay: Acaricidal activity against adult Tetranychus urticae (two-spotted spider mite) greenhouse population TU1 in bean leaves assessed as mortality applied at 1 bar pressure measured after 24 hr; conditions: TU1, 24 h
Tetranychus urticae [15] = assay: Acaricidal activity against adult Tetranychus urticae (two-spotted spider mite) field population TU6 in bean leaves assessed as mortality applied at 1 bar pressure measured after 24 hr; conditions: TU6, 24 h
Tetranychus urticae [16] = assay: Resistance ratio, ratio of LC50 for adult Tetranychus urticae (two-spotted spider mite) greenhouse population TU5 to LC50 for adult Tetranychus urticae laboratory strain SAMB measured after 24 hr
Tetranychus urticae [17] = assay: Resistance ratio, ratio of LC50 for adult Tetranychus urticae (two-spotted spider mite) greenhouse population TU9 to LC50 for adult Tetranychus urticae laboratory strain SAMB measured after 24 hr
Tetranychus urticae [18] = assay: Acaricidal activity against adult Tetranychus urticae (two-spotted spider mite) field population TU4 in bean leaves assessed as mortality applied at 1 bar pressure measured after 24 hr; conditions: TU4, 24 h
Tetranychus urticae [19] = assay: Resistance ratio, ratio of LC50 for adult Tetranychus urticae (two-spotted spider mite) greenhouse population TU3 to LC50 for adult Tetranychus urticae laboratory strain SAMB measured after 24 hr
Tetranychus urticae [20] = assay: Acaricidal activity against adult Tetranychus urticae (two-spotted spider mite) greenhouse population TU11 in bean leaves assessed as mortality applied at 1 bar pressure measured after 24 hr; conditions: TU11, 24 h
Tetranychus urticae [21] = assay: Resistance ratio, ratio of LC50 for adult Tetranychus urticae (two-spotted spider mite) greenhouse population TU1 to LC50 for adult Tetranychus urticae laboratory strain SAMB measured after 24 hr
Tetranychus urticae [22] = assay: Acaricidal activity against adult Tetranychus urticae (two-spotted spider mite) laboratory strain SAMB in bean leaves assessed as mortality applied at 1 bar pressure measured after 24 hr
Tetranychus urticae [23] = assay: Resistance ratio, ratio of LC50 for adult Tetranychus urticae (two-spotted spider mite) field population TU4 to LC50 for adult Tetranychus urticae laboratory strain SAMB measured after 24 hr
Tetranychus urticae [24] = assay: Resistance ratio, ratio of LC50 for adult Tetranychus urticae (two-spotted spider mite) field population TU2 to LC50 for adult Tetranychus urticae laboratory strain SAMB measured after 48 hr
Tetranychus urticae [25] = assay: Resistance ratio, ratio of LC50 for adult Tetranychus urticae (two-spotted spider mite) greenhouse population TU11 to LC50 for adult Tetranychus urticae laboratory strain SAMB measured after 48 hr
Tetranychus urticae [26] = assay: Resistance ratio, ratio of LC50 for adult Tetranychus urticae (two-spotted spider mite) field population TU6 to LC50 for adult Tetranychus urticae laboratory strain SAMB measured after 48 hr
Tetranychus urticae [27] = assay: Acaricidal activity against adult Tetranychus urticae (two-spotted spider mite) field population TU6 in bean leaves assessed as mortality applied at 1 bar pressure measured after 48 hr; conditions: TU6, 48 h
Tetranychus urticae [28] = assay: Resistance ratio, ratio of LC50 for adult Tetranychus urticae (two-spotted spider mite) greenhouse population TU5 to LC50 for adult Tetranychus urticae laboratory strain SAMB measured after 48 hr
Tetranychus urticae [29] = assay: Resistance ratio, ratio of LC50 for adult Tetranychus urticae (two-spotted spider mite) greenhouse population TU7 to LC50 for adult Tetranychus urticae laboratory strain SAMB measured after 48 hr
Tetranychus urticae [30] = assay: Acaricidal activity against adult Tetranychus urticae (two-spotted spider mite) field population TU2 in bean leaves assessed as mortality applied at 1 bar pressure measured after 48 hr; conditions: TU2, 48 h
Tetranychus urticae [31] = assay: Acaricidal activity against adult Tetranychus urticae (two-spotted spider mite) laboratory strain SAMB in bean leaves assessed as mortality applied at 1 bar pressure measured after 48 hr
Tetranychus urticae [32] = assay: Resistance ratio, ratio of LC50 for adult Tetranychus urticae (two-spotted spider mite) greenhouse population TU9 to LC50 for adult Tetranychus urticae laboratory strain SAMB measured after 48 hr
Tetranychus urticae [33] = assay: Acaricidal activity against adult Tetranychus urticae (two-spotted spider mite) field population TU4 in bean leaves assessed as mortality applied at 1 bar pressure measured after 48 hr; conditions: TU4, 48 h
Tetranychus urticae [34] = assay: Acaricidal activity against adult Tetranychus urticae (two-spotted spider mite) greenhouse population TU3 in bean leaves assessed as mortality applied at 1 bar pressure measured after 48 hr; conditions: TU3, 48 h
Tetranychus urticae [35] = assay: Acaricidal activity against adult Tetranychus urticae (two-spotted spider mite) greenhouse population TU9 in bean leaves assessed as mortality applied at 1 bar pressure measured after 48 hr; conditions: TU9, 48 h
Tetranychus urticae [36] = assay: Resistance ratio, ratio of LC50 for adult Tetranychus urticae (two-spotted spider mite) greenhouse population TU1 to LC50 for adult Tetranychus urticae laboratory strain SAMB measured after 48 hr
Tetranychus urticae [37] = assay: Acaricidal activity against adult Tetranychus urticae (two-spotted spider mite) laboratory strain GSS in bean leaves assessed as mortality applied at 1 bar pressure measured after 48 hr
Tetranychus urticae [38] = assay: Resistance ratio, ratio of LC50 for adult Tetranychus urticae (two-spotted spider mite) field population TU4 to LC50 for adult Tetranychus urticae laboratory strain SAMB measured after 48 hr
Tetranychus urticae [39] = assay: Acaricidal activity against adult Tetranychus urticae (two-spotted spider mite) field population TU12 in bean leaves assessed as mortality applied at 1 bar pressure measured after 48 hr; conditions: TU12, 48 h
Tetranychus urticae [40] = assay: Acaricidal activity against adult Tetranychus urticae (two-spotted spider mite) greenhouse population TU5 in bean leaves assessed as mortality applied at 1 bar pressure measured after 48 hr; conditions: TU5, 48 h
Tetranychus urticae [41] = assay: Acaricidal activity against adult Tetranychus urticae (two-spotted spider mite) greenhouse population TU11 in bean leaves assessed as mortality applied at 1 bar pressure measured after 48 hr; conditions: TU11, 48 h
Tetranychus urticae [42] = assay: Resistance ratio, ratio of LC50 for adult Tetranychus urticae (two-spotted spider mite) field population TU12 to LC50 for adult Tetranychus urticae laboratory strain SAMB measured after 48 hr
Tetranychus urticae [43] = assay: Resistance ratio, ratio of LC50 for adult Tetranychus urticae (two-spotted spider mite) laboratory strain GSS to LC50 for adult Tetranychus urticae laboratory strain SAMB measured after 48 hr
Tetranychus urticae [44] = assay: Acaricidal activity against adult Tetranychus urticae (two-spotted spider mite) greenhouse population TU1 in bean leaves assessed as mortality applied at 1 bar pressure measured after 48 hr; conditions: TU1, 48 h
Tetranychus urticae [45] = assay: Acaricidal activity against adult Tetranychus urticae (two-spotted spider mite) greenhouse population TU7 in bean leaves assessed as mortality applied at 1 bar pressure measured after 48 hr; conditions: TU7, 48 h
Tetranychus urticae [46] = assay: Resistance ratio, ratio of LC50 for adult Tetranychus urticae (two-spotted spider mite) greenhouse population TU3 to LC50 for adult Tetranychus urticae laboratory strain SAMB measured after 48 hr

CC(C)(C)c1ccc(CCOc2ncnc3ccccc23)cc1 [FENAZAQUIN]
LC50 (Tetranychus urticae [1]): 447 µg/mL (≈ 1460 µM)
RatioLC50 (Tetranychus urticae [2]): 33
RatioLC50 (Tetranychus urticae [3]): 42
LC50 (Tetranychus urticae [4]): 77 µg/mL (≈ 251 µM)
LC50 (Tetranychus urticae [5]): 215 µg/mL (≈ 702 µM)
RatioLC50 (Tetranychus urticae [6]): 1.3
RatioLC50 (Tetranychus urticae [7]): 15
LC50 (Tetranychus urticae [8]): 97 µg/mL (≈ 317 µM)
RatioLC50 (Tetranychus urticae [9]): 2.2
LC50 (Tetranychus urticae [10]): 49 µg/mL (≈ 160 µM)
LC50 (Tetranychus urticae [11]): 316 µg/mL (≈ 1030 µM)
LC50 (Tetranychus urticae [12]): 17 µg/mL (≈ 55.5 µM)
RatioLC50 (Tetranychus urticae [13]): 7.3
LC50 (Tetranychus urticae [14]): 179 µg/mL (≈ 584 µM)
LC50 (Tetranychus urticae [15]): 29 µg/mL (≈ 94.6 µM)
RatioLC50 (Tetranychus urticae [16]): 3.7
RatioLC50 (Tetranychus urticae [17]): 23
LC50 (Tetranychus urticae [18]): 55 µg/mL (≈ 179 µM)
RatioLC50 (Tetranychus urticae [19]): 5.7
LC50 (Tetranychus urticae [20]): 562 µg/mL (≈ 1830 µM)
RatioLC50 (Tetranychus urticae [21]): 13
LC50 (Tetranychus urticae [22]): 13 µg/mL (≈ 42.4 µM)
RatioLC50 (Tetranychus urticae [23]): 4.1

CCN(CC)c1nc(C)cc(OP(=S)(OC)OC)n1 [PIRIMIPHOS METHYL]
RatioLC50 (Tetranychus urticae [24]): 12
RatioLC50 (Tetranychus urticae [25]): 23
RatioLC50 (Tetranychus urticae [26]): 8.9
LC50 (Tetranychus urticae [27]): 158 µg/mL (≈ 517 µM)
RatioLC50 (Tetranychus urticae [28]): 11
RatioLC50 (Tetranychus urticae [29]): 74
LC50 (Tetranychus urticae [30]): 225 µg/mL (≈ 737 µM)
LC50 (Tetranychus urticae [31]): 18 µg/mL (≈ 59 µM)
RatioLC50 (Tetranychus urticae [32]): 14
LC50 (Tetranychus urticae [33]): 98 µg/mL (≈ 321 µM)
LC50 (Tetranychus urticae [34]): 130 µg/mL (≈ 426 µM)
LC50 (Tetranychus urticae [35]): 248 µg/mL (≈ 812 µM)
RatioLC50 (Tetranychus urticae [36]): 14
LC50 (Tetranychus urticae [37]): 332 µg/mL (≈ 1090 µM)
RatioLC50 (Tetranychus urticae [38]): 5.5
LC50 (Tetranychus urticae [39]): 77 µg/mL (≈ 252 µM)
LC50 (Tetranychus urticae [40]): 204 µg/mL (≈ 668 µM)
LC50 (Tetranychus urticae [41]): 417 µg/mL (≈ 1370 µM)
RatioLC50 (Tetranychus urticae [42]): 4.3
RatioLC50 (Tetranychus urticae [43]): 19
LC50 (Tetranychus urticae [44]): 248 µg/mL (≈ 812 µM)
LC50 (Tetranychus urticae [45]): 1330 µg/mL (≈ 4360 µM)
RatioLC50 (Tetranychus urticae [46]): 7.3
